# Assays:
# KM12C cells = test: Microarray gene expression analysis, KM12C; assay type: cell-based, human
# Method: A total of 0.5×10^6 tumor cells (HCT-116, HT-29, KM12C) were plated in a 6-well plate and allowed to adhere overnight before 24-hour treatment as indicated. 1×10^6 immune cells (NK92, TALL-104) were plated and treated with elraglusib as indicated for 24 hours. RNA was isolated from cell pellets in batches of 6 using an RNeasy Plus Mini Kit (Cat #74134, Qiagen, Hilden, Germany). Acceptable RNA concentration and quality were verified with Nanodrop and Bioanalyzer measurements. GeneChip™ Human Transcriptome Array 2.0 assays were conducted according to manufacturer instructions in two batches using randomized samples to limit batch effects (Cat #902162, Applied Biosystems, Waltham, MA, USA). Applied Biosystems Transcriptomic Analysis Console (TAC) software (RRID: SCR_016519) was used to calculate fold changes in gene expression relative to the untreated control cells. Values were considered statistically significant for p values <0.05.
# TALL-104 cells = test: Cytokine profiling of cell culture supernatant (Luminex 200), TALL-104; assay type: cell-based, human
# Method: Cells were plated at 3.5×10^4 cells in a 48-well plate (Thermo Fisher Scientific, Waltham, MA, USA) in complete medium and incubated at 37° C. with 5% CO2. At 24 hours after plating, almost all the tumor cells were adherent to the bottom of the flask and the complete medium was replaced with the drug-containing medium. […] On the day of analysis, samples were thawed and centrifuged to remove cellular debris.
# (§1) Human cell line culture supernatants were analyzed using an R&D systems Human Premixed Multi-Analyte Kit (R&D Systems, Inc., Minneapolis, MN, USA) and a Luminex 200 (RRID: SCR_018025) Instrument (LX200-XPON-RUO, Luminex Corporation, Austin, TX, USA) according to the manufacturer's instructions. Sample levels of TNF-α, 4-1BB/TNFRSF9/CD137, IL-8/CXCL8, Ferritin, IFN-β, IL-10, CCL2/JE/MCP-1, VEGF, CXCL13/BLC/BCA-1, IFN-γ, CCL20/MIP-3 α, CCL3/MIP-1 α, CCL22/MDC, CCL4/MIP-1 β, Fas Ligand/TNFSF6, IL-17/IL-17A, IL-2, BAFF/BLyS/TNFSF13B, GM-CSF, CXCL5/ENA-78, TRANCE/TNFSF11/RANK L, CXCL9/MIG, G-CSF, IFN-γ R1/CD119, VEGFR3/Flt-4, C-Reactive Protein/CRP, CXCL11/I-TAC, IL-21, CXCL14/BRAK, IL-6, Fas/TNFRSF6/CD95, TRAIL R3/TNFRSF10C, IL-4, CCL5/RANTES, PD-L1/B7-H1, CCL7/MCP-3/MARC, Chitinase 3-like 1, CXCL10/IP-10/CRG-2, IL-1 β/IL-1F2, IL-7, Prolactin, CCL8/MCP-2, TRAIL R2/TNFRSF10B, M-CSF, IL-15, Granzyme B, IFN-α, TREM-1, IL-12/IL-23 p40, TRAIL/TNFSF10, CCL11/Eotaxin, and IL-18/IL-1F4. Quantitative analysis with 6 standards and a minimum of 50 counts per bead region was used with the Luminex to generate analyte values reported as picograms/milliliter (pg/mL). Sample concentrations less than the lower limit of detection for each particular analyte were recoded as the lower limit value divided by ten. Sample concentrations above the upper limit of detection for a particular analyte were recoded as the upper limit of detection.
# [1] = test system: tumor cells (HCT-116, HT-29); test: Cytokine profiling of tumor cell culture supernatant (Luminex 200); assay type: cell-based, human; settings: 48 hours
# Method: Cells were plated at 3.5×10^4 cells in a 48-well plate (Thermo Fisher Scientific, Waltham, MA, USA) in complete medium and incubated at 37° C. with 5% CO2. At 24 hours after plating, almost all the tumor cells were adherent to the bottom of the flask and the complete medium was replaced with the drug-containing medium. Subsequently, the culture supernatants were collected after 48 hours of incubation and were frozen at −80° C. until the measurement of cytokines was performed. On the day of analysis, samples were thawed and centrifuged to remove cellular debris.
# as §1
# [2] = test system: CT-26 MSS colon carcinoma; test: Syngeneic murine colon carcinoma BALB/c model using MSS cell line CT-26, survival; assay type: in vivo, BALB/c mice; settings: IP twice a week: elraglusib 70 mg/kg, anti-PD-1 10 mg/kg, anti-PD-L1 10 mg/kg
# Method: The experimental in vivo protocol (Protocol #19-01-003) was approved by the Institutional Animal Care and Use Committee of Brown University (Providence, RI, USA). Six to 7 weeks-old female BALB/c mice (RRID: IMSR_JAX:000651) were purchased from Taconic. 50,000 cells were suspended in 50 μL ice-cold PBS and 50 μL Matrigel (Catalog # 354234, Corning, New York, USA), and 100 uL was injected subcutaneously into the rear flanks. Once tumor volume reached at least 100 mm^3, mice were randomly assigned to one of seven groups (3 mice/group): Control (isotype), elraglusib, elraglusib+Isotype, anti-PD-1, anti-PD-L1, elraglusib+anti-PD-1, and elraglusib+anti-PD-L1. All treatments were delivered by IP injection on the following dosing schedule: Isotype (70 mg/kg, twice a week), elraglusib (70 mg/kg, twice a week), anti-PD-1 (10 mg/kg, twice a week), anti-PD-L1 (10 mg/kg, twice a week). The treatment continued until mice developed signs of discomfort from excessive tumor growth. Mice were weighed once a week to monitor signs of drug toxicity. The length (L) and width (W) of the masses were measured three times per week with a digital caliper, and the tumor volume was calculated by applying the formula: 0.5LW2. Collection of whole blood and serum was performed by cardiac puncture and sent to Antech GLP for blood cell count and chemistry tests, or in-house cytokine profiling. […]
structure (smiles),measurement,setting,value
"Cn1cc(C2=C(c3coc4ccc(F)cc34)C(=O)NC2=O)c2cc3c(cc21)OCO3 [elraglusib, 3-(5-fluorobenzofuran-3-yl)-4-(5-methyl-5H-[1,3]dioxolo[4,5-f]indol-7-yl)-1H-pyrrole-2,5-dione]",GZMA (granzyme A) gene expression fold change,KM12C cells; 24 hours vs DMSO,1.53 FC
same,downregulated genes in VEGFA-VEGFR2 signaling pathway,KM12C cells; 24 hours vs DMSO,48
same,differentially expressed genes post-treatment,"KM12C cells; IC-50 concentration (1 μM), 24 hours, FC cutoff >1.5, <−1.5, p<0.05","1,032"
same,IFN-γ concentration in supernatant,"TALL-104 cells; 1 μM, 48 hours",increases
same,TRAIL concentration in supernatant,"TALL-104 cells; 1 μM, 48 hours",increases
same,granzyme B concentration in supernatant,"TALL-104 cells; 1 μM, 48 hours",increases
same,IFN-γ in cell culture supernatant,TALL-104 cells; 24 hours treatment vs DMSO,significant increase in IFN-γ
same,CCL5/RANTES secretion,[1]; 1 μM or 5 μM,downregulated post-treatment
same,DcR3 secretion,[1]; 1 μM or 5 μM,downregulated post-treatment
same,Fas secretion,[1]; 1 μM or 5 μM,downregulated post-treatment
same,soluble PD-L1 (sPD-L1) secretion,[1]; 1 μM or 5 μM,downregulated post-treatment
same,GDF-15 secretion,"[1]; both cell lines, 1 μM and 5 μM",decreased secretion
same,GM-CSF secretion,"[1]; both cell lines, 1 μM and 5 μM",decreased secretion
same,VEGF secretion,"[1]; both cell lines, 1 μM and 5 μM",decreased secretion
same,survival (Kaplan-Meier) as compared to the control,[2],statistically significant improved survival

# — US20260256741A1, “ANTICANCER MALEIMIDE DERIVATIVES FOR USE WITH IMMUNE CHECKPOINT BLOCKADE” (BROWN UNIVERSITY, priority 2022, published 2026)
